Data as given in patent US20190274968A1 (priority 2016, published 2019).

test system: luciferase; format: in vivo, BALB/c mice; conditions: LNP with the indicated cationic lipid; 3 μg Luciferase mRNA-LNP intradermal

Structure (SMILES)	delivery of mRNA (expression of luciferase measured by IVIS)
CCCCCCCC(=O)N(CCCN(C)C)C(CCCCCCCCC(=O)OC(CCCCCC)CCCCCC)CCCCCCCCC(=O)OC(CCCCCC)CCCCCC [II-10]	effectively delivered
CCCCCCCCC(CCCCCC)C(=O)OCCCCCCN(CCCCCO)CCCCCCOC(=O)C(CCCCCC)CCCCCCCC (stereo not drawn) [III-7]	effectively delivered
CCCCCCCCC(CCCCCC)C(=O)OCCCCCCN(CCCCO)CCCCCCOC(=O)C(CCCCCC)CCCCCCCC (stereo not drawn) [III-3]	effectively delivered
CCCCCCCCC(=O)N(CCCN1CCCC1)C(CCCCCCCCC(=O)OCC(CCCC)CCCCCC)CCCCCCCCC(=O)OCC(CCCC)CCCCCC (stereo not drawn) [II-36]	effectively delivered
CCCCCCCCC(CCCCCC)C(=O)OCCCCCCCCCN(CCCCCCCCCOC(=O)C(CCCCCC)CCCCCCCC)CCN(C)C (stereo not drawn) [Compound I-6]	effectively delivered
CCCCCCCCC(=O)N(CCCN(C)C)C(CCCCCCCCC(=O)OCC(CCCC)CCCCCC)CCCCCCCCC(=O)OCC(CCCC)CCCCCC (stereo not drawn) [II-9]	effectively delivered
CCCCCCCCC(CCCCCC)COC(=O)CCCCCCCCC(CCCCCCCCC(=O)OCC(CCCCCC)CCCCCCCC)N(CCCN(C)C)C(=O)CCCCCCC (stereo not drawn) [II-12]	effectively delivered
CCCCCCCCC(=O)N(CCCN(C)C)C(CCCCCCCCC(=O)OC(CCCCCC)CCCCCC)CCCCCCCCC(=O)OC(CCCCCC)CCCCCC [II-11]	effectively delivered
CCCCCCCCC(CCCCCC)C(=O)OCCCCCCN(CCCCCCOC(=O)C(CCCCCC)CCCCCCCC)CCN(C)C (stereo not drawn) [Compound I-5]	effectively delivered
